Measurements: ChEMBL document CHEMBL1146481, “Rediocides B-E, potent insecticides from Trigonostemon reidioides” (2004)

System: Ctenocephalides felis
Assay: Insecticidal activity against Ctenocephalides felis by anti-flea artificial membrane feeding system
Assay type: functional

Going from `CC(C)CC(=O)O[C@H]1/C=C/C=C/C(=O)O[C@H]2[C@@H](C)C[C@@H]3[C@]2(O)[C@H](O)[C@@]2(CO)O[C@H]2[C@H]2[C@H]4OC5(c6ccccc6)O[C@@H]([C@@H](C)[C@@]23O5)[C@@]4(O)[C@](C)(O)C[C@H]2CC[C@H]1[C@H]2C` [REDIOCIDE A] to `CC(C)CC(=O)O[C@H]1/C=C/C=C/C(=O)O[C@H]2CC[C@@H]3[C@]2(O)[C@H](O)[C@@]2(CO)O[C@H]2[C@H]2[C@H]4OC5(c6ccccc6)O[C@@H]([C@@H](C)[C@@]23O5)[C@@]4(O)[C@](C)(O)C[C@H]2CC[C@H]1[C@H]2C` [REDIOCIDE E], the LD90 rises from 0.25 ppm to 0.5 ppm.

First: CC(C)CC(=O)O[C@H]1/C=C/C=C/C(=O)O[C@H]2[C@@H](C)C[C@@H]3[C@]2(O)[C@H](O)[C@@]2(CO)O[C@H]2[C@H]2[C@H]4OC5(c6ccccc6)O[C@@H]([C@@H](C)[C@@]23O5)[C@@]4(O)[C@](C)(O)CC2CCC1CC2 [REDIOCIDE B]
Second: C[C@H]1[C@@H]2CC[C@@H]1[C@@H](OC(=O)c1ccccc1)/C=C/C=C/C(=O)O[C@H]1[C@@H](C)C[C@@H]3[C@]1(O)[C@H](O)[C@@]1(CO)O[C@H]1[C@H]1[C@H]4OC5(c6ccccc6)O[C@@H]([C@@H](C)[C@@]13O5)[C@@]4(O)[C@](C)(O)C2 [REDIOCIDE C]
The LD90 of the first is lower: 0.25 ppm for the first, 0.5 ppm for the second.

`C[C@@H]1[C@@H]2OC3(c4ccccc4)O[C@@H]4[C@@H]5[C@@H]6O[C@]6(C)[C@@H](O)[C@@]6(O)[C@@H](C[C@H](C)[C@@H]6OC(=O)/C=C/[C@@H]6O[C@H]6[C@H](OC(=O)c6ccccc6)C6CCC(CC6)C[C@@](C)(O)[C@@]42O)[C@]51O3` [REDIOCIDE D] gave an LD90 of 0.25 ppm.
